In PMC3591309, “Deoxyhypusine Hydroxylase from Plasmodium vivax, the Neglected Human Malaria Parasite: Molecular Cloning, Expression and Specific Inhibition by the 5-LOX Inhibitor Zileuton” (PLoS ONE, 2013):

Target: T1, Deoxyhypusine hydroxylase (DOHH) (Plasmodium vivax, UniProt A5JZ19)
T1 construct: full-length ORF of 346 amino acids, histidine-tagged, expressed in E. coli BL21(DE3) (pET-28a)
T1 sequence (A5JZ19 1-346): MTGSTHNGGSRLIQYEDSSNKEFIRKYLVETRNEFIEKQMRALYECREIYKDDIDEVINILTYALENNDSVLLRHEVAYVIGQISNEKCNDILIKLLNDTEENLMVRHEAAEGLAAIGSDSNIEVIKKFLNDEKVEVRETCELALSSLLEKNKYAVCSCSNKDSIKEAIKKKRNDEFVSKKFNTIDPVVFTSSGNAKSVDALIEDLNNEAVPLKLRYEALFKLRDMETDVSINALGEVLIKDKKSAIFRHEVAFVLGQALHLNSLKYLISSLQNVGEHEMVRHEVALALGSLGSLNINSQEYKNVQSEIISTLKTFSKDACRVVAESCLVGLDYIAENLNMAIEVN
Assay: recombinant DOHH activity assay with eIF-5A(Dhp) substrate; radioactive filter assay and GC/MS, dose-response
Format: biochemical

IC50: 12,5 nmol
Structure (SMILES): CC(c1cc2ccccc2s1)N(O)C(N)=O (racemic) [zileuton, (RS)-1-(1-Benzothiophen-2-ylethyl)-1-hydroxyurea]
